Read-outs that look alike come from different tables or passages of the source.
Key:
[1] = biological target: T1, human androgen receptor (AR) (Homo sapiens, UniProt P10275); test: C2C12 AR/ARE reporter assay; format: cell-based
T1 construct: expressed in transfected cells; host or cells: mouse myoblast C2C12 cells, transiently co-transfected
T1 sequence (P10275 1-920): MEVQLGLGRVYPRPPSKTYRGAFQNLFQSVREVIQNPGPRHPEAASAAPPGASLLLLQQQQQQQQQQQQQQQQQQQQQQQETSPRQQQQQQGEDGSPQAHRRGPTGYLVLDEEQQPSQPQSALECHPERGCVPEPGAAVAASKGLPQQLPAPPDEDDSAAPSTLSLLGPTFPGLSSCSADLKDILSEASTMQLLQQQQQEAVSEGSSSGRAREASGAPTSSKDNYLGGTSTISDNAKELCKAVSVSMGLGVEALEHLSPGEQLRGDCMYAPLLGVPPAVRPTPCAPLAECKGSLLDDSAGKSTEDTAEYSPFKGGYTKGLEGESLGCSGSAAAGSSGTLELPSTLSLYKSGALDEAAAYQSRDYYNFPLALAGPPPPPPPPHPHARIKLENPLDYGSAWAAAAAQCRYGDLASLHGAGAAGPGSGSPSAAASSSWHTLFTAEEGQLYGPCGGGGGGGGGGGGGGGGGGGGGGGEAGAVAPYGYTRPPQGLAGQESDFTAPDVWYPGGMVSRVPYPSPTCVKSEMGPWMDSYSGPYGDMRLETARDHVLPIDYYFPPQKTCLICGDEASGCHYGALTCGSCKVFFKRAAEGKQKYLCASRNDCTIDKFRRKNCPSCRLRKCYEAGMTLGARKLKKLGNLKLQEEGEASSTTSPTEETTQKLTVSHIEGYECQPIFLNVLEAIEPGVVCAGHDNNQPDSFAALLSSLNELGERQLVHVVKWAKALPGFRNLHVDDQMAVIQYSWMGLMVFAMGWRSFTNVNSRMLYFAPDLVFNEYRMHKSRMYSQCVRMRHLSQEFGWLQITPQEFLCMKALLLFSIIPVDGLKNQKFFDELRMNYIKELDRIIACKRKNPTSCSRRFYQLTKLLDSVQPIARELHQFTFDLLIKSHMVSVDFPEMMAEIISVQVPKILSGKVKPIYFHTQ
How it was run: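 Mouse C2C12 myoblasts co-transfected with AR/ARE reporter were plated in charcoal-stripped serum and treated for 48 h with compound from about 0.01 nM to 10 μM. Luciferase activity gave EC50 by 4-parameter logistic fit. Efficacy is expressed as % of maximal stimulation by 10 nM methyltrienolone.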

[2] = biological target: T2, human AR (androgen receptor) (Homo sapiens, UniProt P10275); test: Steroid hormone nuclear receptor binding assay, AR binding
T2 construct: expressed in transfected cells; host or cells: 293 cells (293-AR lysate)
T2 sequence (P10275 1-920): T1 sequence (P10275 1-920)
How it was run: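 Competition binding with lysates of 293 cells overexpressing human AR, [3H]-methyltrienolone tracer, compounds from about 0.01 nM to 10 μM, overnight at 4 °C; non-specific binding set with 500 nM methyltrienolone. Bound tracer counted by scintillation after charcoal-dextran separation; IC50 converted to Ki by Cheng-Prusoff using Kd from saturation binding.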

[3] = C2C12, read-out: C2C12 % Efficacy
[4] = C2C12 AR/ARE reporter assay, average of n trials, read-out: C2C12 % Efficacy
[5] = C2C12 AR/ARE reporter assay, average of n trials, read-out: C2C12 EC50
[6] = average of n trials, read-out: AR binding Ki

| SMILES | melting point | EC50 [1] [nM] | Emax [1, 3] [%] | Ki [2] [nM] | Emax [1, 4] [%] | EC50 [1, 5] [nM] | Ki [2, 6] [nM] |
| --- | --- | --- | --- | --- | --- | --- | --- |
| CC(C)C(=O)N[C@H]1CCc2c(c3cc(C#N)ccc3n2Cc2cccc(F)c2)C1 [Example 124, (S)-N-(6-Cyano-9-(3-fluorobenzyl)-2,3,4,9-tetrahydro-1H-carbazol-3-yl)isobutyramide] | 223 to 225 °C | 1110 | 49.9 | 195 | – | – | – |
| CC(C)C(=O)N[C@@H]1CCc2c(c3cc(C#N)ccc3n2Cc2cccc(F)c2)C1 (single isomer, unassigned) [Example 123] | 223 to 225 °C | 1.8 | 87 | 1 | – | – | – |
| CC(C)C(=O)NC1CCc2c(c3cc(Cl)ccc3n2Cc2ccccc2Cl)C1 (stereo not drawn) [Example 18] | 197 to 199 °C | 153 | 82.1 | 10.5 | – | – | – |
| COc1ccccc1Cn1c2c(c3cc(Br)ccc31)CC(NC(=O)C(C)C)CC2 (stereo not drawn) [Example 34] | 108 to 111 °C | – | 103 | – | – | – | – |
| N#Cc1ccc2c(c1)c1c(n2Cc2ccccn2)CC[C@@H](NC(=O)C2CC2)C1 [Example 196, Cyclopropanecarboxylic acid[6-cyano-9-(pyridin-2-ylmethyl)-2,3,4,9-tetrahydro-1H-carbazol-3-yl]-amide] | 239 to 241 °C | 15.3 | 95.2 | 16.1 | – | – | – |
| CC(C)C(=O)NC1CCc2c(c3cc(C(F)(F)F)ccc3n2Cc2cccc(F)c2)C1 (stereo not drawn) [Example 55] | 131 to 138 °C | 2.5 | 82.9 | 11.2 | – | – | – |
| CC(C)C(=O)NC1CCc2c(c3cc(F)ccc3n2Cc2ccccc2F)C1 (stereo not drawn) [Example 4] | 156 to 158 °C | – | 36.1 | – | – | – | – |
| CC(C)C(=O)NC1CCc2c(c3ccc(Cl)cc3n2Cc2cccc(F)c2)C1 (stereo not drawn) [Example 56] | 233 to 235 °C | – | 66.6 | – | – | – | – |
| CC(C)C(=O)NC1CCc2c(c3cc(C#N)ccc3n2Cc2cccc(F)c2)C1 (stereo not drawn) [Example 51, N-(6-cyano-9-(3-fluorobenzyl)-2,3,4,9-tetrahydro-1H-carbazol-3-yl)isobutyramide] | 195 to 199 °C | – | 87.5 | – | – | – | – |
| CC(C)C(=O)NC1CCc2c(c3cc(Br)ccc3n2Cc2ccccc2Cl)C1 (stereo not drawn) [Example 32] | 196 to 198 °C | – | 94.3 | – | – | – | – |
| Cc1ccc2c(c1)c1c(n2Cc2cccc(F)c2)CCC(NC(=O)C(C)C)C1 (stereo not drawn) [Example 47] | 215 to 217 °C | – | 86.3 | – | – | – | – |
| CC(C)C(=O)NC1CCc2c(c3cc(Cl)ccc3n2Cc2ccccc2)C1 (stereo not drawn) [Example 16] | 174 to 176 °C | – | 86 | – | – | – | – |
| CC(C)C(=O)N[C@@H]1CCc2c(c3cc(Br)ccc3n2Cc2cccc(F)c2)C1 [Example 122] | 204 to 207 °C | – | – | – | – | – | – |
| CC(C)C(=O)NC1CCc2c(c3cc(Cl)ccc3n2Cc2cccc(C#N)c2)C1 (stereo not drawn) [Example 24] | 225 to 228 °C (dec.) | – | 48.9 | – | – | – | – |
| COc1cccc(Cn2c3c(c4cc(Cl)ccc42)CC(NC(=O)C(C)C)CC3)c1 (stereo not drawn) [Example 23] | 178 to 181 °C | – | 54.4 | – | – | – | – |
| CC(C)C(=O)NC1CCc2c(c3cccc(F)c3n2Cc2cccc(F)c2)C1 (stereo not drawn) [Example 58] | 185 to 188 °C | – | 62.1 | – | – | – | – |
| CC(C)C(=O)NC1CCc2c(c3cc(Cl)ccc3n2Cc2cccc(F)c2)C1 (stereo not drawn) [Example 21] | 187 to 189 °C | – | 81 | – | – | – | – |
| CC(C)C(=O)NC1CCc2c(c3cc(Cl)ccc3n2Cc2cc(F)cc(F)c2)C1 (stereo not drawn) [Example 29] | 207 to 210 °C | – | 64 | – | – | – | – |

| SMILES | melting point | EC50 [1] [nM] | Emax [1, 3] [%] | Ki [2] [nM] | Emax [1, 4] [%] | EC50 [1, 5] [nM] | Ki [2, 6] [nM] |
| --- | --- | --- | --- | --- | --- | --- | --- |
| CC(C)C(=O)NC1CCc2c(c3cc(Cl)ccc3n2Cc2ccc(F)cc2)C1 (stereo not drawn) [Example 25] | 175 to 178 °C | – | 62.7 | – | – | – | – |
| COc1ccccc1Cn1c2c(c3cc(C#N)ccc31)CC(NC(=O)C(C)C)CC2 (stereo not drawn) [Example 105, N-[6-Cyano-9-(2-methoxy-benzyl)-2,3,4,9-tetrahydro-1H-carbazol-3-yl]-isobutyramide] | – | 30.7 | 97.5 | 7.7 | – | – | – |
| CC(C)C(=O)N[C@@H]1CCc2c(c3cc(C#N)ccc3n2Cc2csc(Cl)n2)C1 [Example 154, (R)-N-[9-(2-Chloro-thiazol-4-ylmethyl)-6-cyano-2,3,4,9-tetrahydro-1H-carbazol-3-yl]-isobutyramide] | – | 4.4 | 119 | 2.2 | – | – | – |
| Cc1csc(-c2ccc3c(c2)c2c(n3Cc3cccc(F)c3)CC[C@@H](NC(=O)C(C)C)C2)n1 [Example 128, (R)-N-[9-(3-Fluorobenzyl)-6-(4-methylthiazol-2-yl)-2,3,4,9-tetrahydro-1H-carbazol-3-yl]isobutyramide] | – | 236 | 72.5 | 43 | – | – | – |
| CC(C)C(=O)NC1CCc2c(c3cc(C(N)=S)ccc3n2Cc2cccc(F)c2)C1 (stereo not drawn) [Example 64, N-(9-(3-Fluorobenzyl)-6-thiocarbamoyl-2,3,4,9-tetrahydro-1H-carbazol-3-yl)isobutyramide] | – | – | – | – | 89.3 | 9.3 | 14.5 |
| CC(C)C(=O)NC1CCc2c(c3cc(C#N)ccc3n2Cc2cscn2)C1 (stereo not drawn) [Example 147, N-(6-Cyano-9-thiazol-4-ylmethyl-2,3,4,9-tetrahydro-1H-carbazol-3-yl)-isobutyramide] | – | 79.7 | 102 | 29.2 | – | – | – |
| CC(C)C(=O)NC1CCc2c(c3cc(Br)ccc3n2Cc2ccccc2)C1 (stereo not drawn) [Example 30] | 173 to 177 °C | – | 87 | – | – | – | – |
| COc1ccc2c3c(n(Cc4ccccc4)c2c1)CCC(NC(=O)C(C)C)C3 (stereo not drawn) [Example 77] | – | 1200 | 74.9 | 103 | – | – | – |
| COc1ccc2c(c1)c1c(n2Cc2cccc(Cl)c2)CCC(NC(=O)C(C)C)C1 (stereo not drawn) [Example 70] | – | 39.8 | 63.9 | 10 | – | – | – |
| CC(C)C(=O)N[C@H]1CCc2c(c3cc(C#N)ccc3n2Cc2ccccc2N)C1 (single isomer, unassigned) [Example 111, S-N-[9-(2-Amino-benzyl)-6-cyano-2,3,4,9-tetrahydro-1H-carbazol-3-yl]-isobutyramide] | – | 55.2 | 111 | 127 | – | – | – |
| CCOc1ccc2c(c1)c1c(n2Cc2cccc(F)c2)CCC(NC(=O)C(C)C)C1 (stereo not drawn) [Example 93, N-[6-Ethoxy-9-(3-fluoro-benzyl)-2,3,4,9-tetrahydro-1H-carbazol-3-yl]-isobutyramide] | – | 5 | 82.4 | 6.8 | – | – | – |
| CN(C)C(=O)NC1CCc2c(c3cc(OC(F)(F)F)ccc3n2Cc2cccc(F)n2)C1 (stereo not drawn) [Example 165] | – | 15.3 | 74.6 | 14.2 | – | – | – |
| CC(C)C(=O)NC1CCc2c(c3cc(Cl)ccc3n2Cc2ccc(O)cc2)C1 (stereo not drawn) [Example 103, N-[6-Chloro-9-(4-hydioxy-benzyl)-2,3,4,9-tetrahydro-1H-carbazol-3-yl]-isobutyramide] | – | – | – | – | 32.8 | 293 | 51.4 |
| CC(C)C(=O)NC1CCc2c(c3cc(C#N)ccc3n2Cc2ccc(Cl)s2)C1 (stereo not drawn) [Example 148, N-[9-(5-Chloro-thiophen-2-ylmethyl)-6-cyano-2,3,4,9-tetrahydro-1H-carbazol-3-yl]-isobutyramide] | – | – | – | – | 86.7 | 23.8 | 7.3 |
| CC(C)C(=O)N[C@@H]1CCc2c(c3cc(-c4cccnc4)ccc3n2Cc2cccc(F)c2)C1 [Example 133] | – | 7.5 | 66.4 | 4.6 | – | – | – |
| COc1ccc2c(c1)c1c(n2Cc2ccc(Cl)cc2)CCC(NC(=O)C(C)C)C1 (stereo not drawn) [Example 71] | – | 402 | 40.7 | 82.5 | – | – | – |
| COc1ccc(Cn2c3c(c4cc(C#N)ccc42)CC(NC(=O)C(C)C)CC3)cc1 (stereo not drawn) [Example 87] | – | – | 10.6 | 17.7 | – | – | – |
| COc1ccc2c(c1)c1c(n2Cc2ccccc2)CCC(NC(=O)C(C)C)C1 (stereo not drawn) [Example 67, N-(9-Benzyl-6-methoxy-2,3,4,9-tetrahydro-1H-carbazol-3-yl)-isobutyramide] | – | 18.6 | 96.9 | 6.2 | – | – | – |
